Source: ChEMBL document CHEMBL5729177, “GLS1 inhibitors for treating disease” (2022)

Target: T1, Glutaminase kidney isoform, mitochondrial (Homo sapiens, UniProt O94925)
T1 sequence (O94925 whole entry): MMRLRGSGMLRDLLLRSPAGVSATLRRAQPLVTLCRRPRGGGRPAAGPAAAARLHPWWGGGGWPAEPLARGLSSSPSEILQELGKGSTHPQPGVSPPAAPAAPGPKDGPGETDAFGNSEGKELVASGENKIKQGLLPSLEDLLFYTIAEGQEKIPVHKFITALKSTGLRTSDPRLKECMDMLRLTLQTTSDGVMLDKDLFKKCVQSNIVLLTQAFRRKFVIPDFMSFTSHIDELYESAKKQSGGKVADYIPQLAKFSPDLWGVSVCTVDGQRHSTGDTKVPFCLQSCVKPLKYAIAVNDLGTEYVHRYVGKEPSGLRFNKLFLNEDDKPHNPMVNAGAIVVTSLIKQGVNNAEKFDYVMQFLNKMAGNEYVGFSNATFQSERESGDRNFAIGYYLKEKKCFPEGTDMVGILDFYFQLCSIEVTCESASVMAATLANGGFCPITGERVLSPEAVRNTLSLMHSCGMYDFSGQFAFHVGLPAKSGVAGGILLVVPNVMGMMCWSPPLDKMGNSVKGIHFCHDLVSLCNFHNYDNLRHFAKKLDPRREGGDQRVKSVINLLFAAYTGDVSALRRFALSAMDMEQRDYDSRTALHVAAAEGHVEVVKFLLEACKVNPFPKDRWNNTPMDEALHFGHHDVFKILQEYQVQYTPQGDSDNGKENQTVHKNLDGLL
Experiment: Enzymatic Activity Assay: The inhibition of purified recombinant human GAC by varying concentrations of inhibitors is assessed via a dual-coupled enzymatic assay. The glutamate produced by the glutaminase reaction is used by glutamate oxidase to produce α-ketoglutarate, ammonia, and hydrogen peroxide, with this hydrogen peroxide subsequently being used by horseradish peroxidase to produce resorufin in the presence of Amplex UltraRed. The assay buffer consisted of 50 mM Hepes (pH 7.4), 0.25 mM EDTA and 0.1 mM Triton X-100. GAC was incubated with potassium phosphate (10 minutes at room temperature) prior to incubation with inhibitor (10 minutes at room temperature). The final reaction conditions were as follows: 2 nM GAC, 50 mM potassium phosphate, 100 mU/mL glutamate oxidase (Sigma), 1 mM glutamine (Sigma), 100 mU/mL horseradish peroxidase (Sigma), 75 μM Amplex UltraRed (Life Technologies), and 1% (v/v) DMSO. The production of resorufin was monitored on a Perkin Elmer Envision plate reader (excitation 530 nm, emission 590 nm) either in a kinetics or endpoint mode (at 20 minutes). IC50 values were calculated using a four-parameter logistic curve fit.

O=C(NCc1cc(OC(F)(F)F)ccc1F)c1cn(CCC(F)Cn2cc(C(=O)NCc3ccccn3)nn2)nn1 (stereo unspecified)
IC50: < 100 nM
